Measurements from ChEMBL document CHEMBL1201862, “PubChem BioAssay data set” (2004).
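Method: 48-hour compound exposure of cells in 96-well plates, five concentrations, linear interpolation of endpoints. GI50: concentration for 50% inhibition of growth.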 Activity calls are given as the source filed them. No stated cut-off is given here; in the data, active = GI50 up to about 1.1 µM and inactive = higher.

Columns and labels:
Experiment in all cases: DTP human tumour cell line panel, 48 h
[1] = tested on: 786-0
[2] = tested on: A498
[3] = tested on: A549
[4] = tested on: ACHN
[5] = tested on: CAKI-1
[6] = tested on: CCRF-CEM
[7] = tested on: DLD-1
[8] = tested on: DMS-114
[9] = tested on: DMS-273
[10] = tested on: EKVX
[11] = tested on: HCC 2998
[12] = tested on: HCT-116
[13] = tested on: HCT-15
[14] = tested on: HL-60
[15] = tested on: HOP-62
[16] = tested on: HT-29
[17] = tested on: IGROV-1
[18] = tested on: K562
[19] = tested on: KM-20L2
[20] = tested on: KM12
[21] = tested on: LXFL 529
[22] = tested on: M14
[23] = tested on: M19-MEL
[24] = tested on: MOLT-4
[25] = tested on: Malme-3M
[26] = tested on: NCI-H226
[27] = tested on: NCI-H23
[28] = tested on: NCI-H460
[29] = tested on: OVCAR-3
[30] = tested on: OVCAR-4
[31] = tested on: OVCAR-5
[32] = tested on: OVCAR-8
[33] = tested on: RPMI-8226
[34] = tested on: RXF 393
[35] = tested on: RXF 631
[36] = tested on: SF-295
[37] = tested on: SF-539
[38] = tested on: SK-MEL-28
[39] = tested on: SK-MEL-2
[40] = tested on: SK-MEL-5
[41] = tested on: SK-OV-3
[42] = tested on: SNB-75
[43] = tested on: SNB-78
[44] = tested on: SW-620
[45] = tested on: TK-10
[46] = tested on: U-251
[47] = tested on: UACC-257
[48] = tested on: UACC-62
[49] = tested on: UO-31
[50] = tested on: XF498
[51] = tested on: COLO 205
[52] = tested on: DU-145
[53] = tested on: HOP-18
[54] = tested on: HOP-92
[55] = tested on: Hs-578T
[56] = tested on: LOX IMVI
[57] = tested on: MCF7
[58] = tested on: MDA-MB-231
[59] = tested on: MDA-MB-435
[60] = tested on: MDA-N
[61] = tested on: NCI-H522
[62] = tested on: NCI/ADR-RES
[63] = tested on: PC-3
[64] = tested on: SF-268
[65] = tested on: SN12C
[66] = tested on: SNB-19
[67] = tested on: SR
[68] = tested on: T47D

Measured: GI50

O=c1[nH]c(-c2ccccc2)nc2cc(Cl)ccc12
inactive: [1] > 100 µM | [2] > 100 µM | [3] > 100 µM | [4] > 100 µM | [5] > 100 µM | [6] > 100 µM | [7] > 100 µM | [8] > 100 µM | [9] > 100 µM | [10] > 100 µM | [11] > 100 µM | [12] > 100 µM | [14] > 100 µM | [15] > 100 µM | [16] > 100 µM | [17] > 100 µM | [18] > 100 µM | [19] > 100 µM | [20] > 100 µM | [21] > 100 µM | [22] > 100 µM | [23] > 100 µM | [24] > 100 µM | [25] > 100 µM | [26] 73.3 µM | [27] > 100 µM | [28] > 100 µM | [29] > 100 µM | [30] > 100 µM | [31] > 100 µM | [32] > 100 µM | [33] > 100 µM | [34] > 100 µM | [35] > 100 µM | [36] > 100 µM | [37] > 100 µM | [38] > 100 µM | [39] > 100 µM | [40] > 100 µM | [41] > 100 µM | [42] > 100 µM | [43] > 100 µM | [44] > 100 µM | [45] > 100 µM | [46] > 100 µM | [47] > 100 µM | [48] > 100 µM | [49] > 100 µM | [50] > 100 µM
> 100 µM: [13]

Cc1csc2c1C(=O)c1ccsc1C2=O
inactive: [1] 4.63 µM | [2] 18.2 µM | [3] 1.72 µM | [4] 2.98 µM | [5] 19.6 µM | [6] 4.03 µM | [51] 12.2 µM | [7] 2.68 µM | [8] 1.69 µM | [9] 1.94 µM | [52] 1.88 µM | [10] 7.98 µM | [11] 6.11 µM | [12] 2.17 µM | [14] 2.65 µM | [53] 1.95 µM | [54] 3.56 µM | [16] 2.65 µM | [55] 1.81 µM | [17] 3.24 µM | [18] 2.85 µM | [19] 4.28 µM | [20] 2.96 µM | [56] 1.26 µM | [21] 3.42 µM | [57] 1.41 µM | [58] 2.35 µM | [24] 4.61 µM | [26] 11 µM | [27] 1.16 µM | [28] 1.87 µM | [61] 2.21 µM | [62] 1.87 µM | [29] 2.07 µM | [30] 1.89 µM | [31] 1.96 µM | [32] 2.99 µM | [63] 2.58 µM | [33] 3.61 µM | [34] 3.21 µM | [64] 2.96 µM | [36] 1.59 µM | [37] 2.01 µM | [38] 1.53 µM | [39] 2.03 µM | [41] 20.4 µM | [65] 2.2 µM | [66] 3.37 µM | [42] 1.97 µM | [43] 4.27 µM | [67] 4.15 µM | [44] 2.47 µM | [68] 2.2 µM | [45] 19.1 µM | [46] 3.4 µM | [47] 1.52 µM | [48] 1.69 µM | [49] 2.87 µM | [50] 2.35 µM
1.49 µM: [13]
active: [22] 0.778 µM | [23] 0.175 µM | [59] 0.215 µM | [60] 0.293 µM | [25] 0.343 µM | [40] 0.589 µM
